Assay results published in PMC4178217, “Quinoline 3-sulfonamides inhibit lactate dehydrogenase A and reverse aerobic glycolysis in cancer cells” (Cancer & Metabolism, 2013).

Experiments:
[1] = test system: Snu398 cells; test: Lactate production assay, Snu398 (RapidFire-MS)
[2] = molecular target: recombinant human LDHA (Homo sapiens, UniProt P00338); test: recombinant human LDHA enzyme assay (lactate to pyruvate, NADH via diaphorase/resazurin)
[3] = molecular target: recombinant human LDHB (Homo sapiens, UniProt P07195); test: recombinant human LDHB enzyme assay (lactate to pyruvate, NADH via diaphorase/resazurin)
[4] = test system: Snu398 cells; test: Compound cellular permeability assay, whole-cell extract; type: in vitro ADME, human; conditions: Snu398 treated with 1 μM for 1.5 h
Protocol: Compound cellular permeability assays For cytosolic permeability assay, twelve million Snu398 cells were allowed to attach overnight and treated with DMSO control or 1 µM Compound 2 for 1.5 h in 1.7 mM glucose medium. The medium was removed, cells were washed in phosphate-buffered saline (PBS), and cytosolic extracts were prepared by solubilization in Qproteome lysis buffer (Qiagen, Valencia, CA). For whole-cell permeability assay, 75,000 Snu398 cells/well were plated in 96-well plates and treated with DMSO control or 1 µM compounds for 1.5h in low glucose medium. The medium was removed, cells were washed in PBS and solubilized in 50:50 mixture of methanol and acetonitrile. Compound concentration in the cytosolic or whole-cell extract was determined by LC/MS/MS analysis. An Acquity UPLC system (Waters Inc., Milford, MA) was coupled to an API 4000 or API 5000 triple-quad mass spectrometer (Applied Biosystems). […] Compound concentration in cells was determined by counting the number of cells in sample wells and assuming 3 pL/cell volume.

recombinant human LDHB, sequence (P07195 whole entry): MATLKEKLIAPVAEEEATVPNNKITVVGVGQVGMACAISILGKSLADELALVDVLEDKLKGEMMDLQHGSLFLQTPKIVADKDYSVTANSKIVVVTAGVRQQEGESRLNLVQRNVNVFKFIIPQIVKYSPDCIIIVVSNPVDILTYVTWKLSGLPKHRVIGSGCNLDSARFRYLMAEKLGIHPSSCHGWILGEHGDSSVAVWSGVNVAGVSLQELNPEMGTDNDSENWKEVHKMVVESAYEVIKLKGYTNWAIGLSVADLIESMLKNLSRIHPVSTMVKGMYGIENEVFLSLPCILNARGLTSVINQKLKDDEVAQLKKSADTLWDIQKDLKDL

Structure (SMILES) | effect on cellular lactate production ([1]; Snu398) | IC50 [2] [µM] | IC50 [3] [µM] | apparent intracellular concentration versus medium [4] | EC50 ([1]; Homo sapiens, SNU-398, read-out: lactate production EC50) [µM] | mode of LDHA inhibition [2]
COc1ncc(-c2ccc3c(Nc4cc(Oc5ccc(F)cc5)cc(C(F)(F)F)c4)c(S(=O)(=O)NC4CC4)cnc3c2)c(OC)n1 [Compound 4] | does not affect cellular lactate | > 50 | > 50 |  |  | 
COc1ncc(-c2ccc3c(Nc4cc(Oc5ccc(F)cc5)cc(S(N)(=O)=O)c4)c(S(=O)(=O)NC4CC4)cnc3c2)c(OC)n1 [Compound 3] |  |  | 0.055 ± 0.009 | higher apparent intracellular concentrations than that of the medium | 3.3 ± 1.3 | 
COc1cc2c(Nc3cccc(C(=O)O)c3)c(C(N)=O)cnc2cc1-c1c(C)noc1C |  |  |  |  |  | NADH-competitive LDHA inhibitor
